Counter-ions that a name gives are not always drawn.
Key:
Candida albicans [1] = experiment: Activity against vaginal candidosis in rats (lowest oral dose active at the 14th day after infection); type: in vivo, Female Wistar rats; set-up: lowest effective oral dose (vaginal candidosis in rats): unit not given here; conditions: oral once a day for two days, active at 14th day after infection; for lowest effective oral dose (vaginal candidosis in rats): Table I
Experimental: Experiment A: Activity of Compounds (I) Against Vaginal Candidosis in Rats
Female Wistar rats of ±100 g body weight were used. They were ovariectomized and hysterectomized and after three weeks of recovery, 100 μg of oestradiol undecylate in sesame oil was given subcutaneously once a week for 3 consecutive weeks. The thus induced pseudooestrus was controlled by microscopic examination of vaginal smears. Food and water were left available ad libitum.
The rats were infected intravaginally with 8.10^5 cells of Candida albicans, grown on Sabouraud broth for 48 hours at 37° C. and diluted with saline. The date of infection varied from day +25 to day +32 after surgical intervention, depending on the appearance of signs of induced pseudo-oestrus.
The drugs under investigation were administered orally once a day for two days starting from the day of infection. For each experiment there were placebo treated controls. The results were assessed by taking vaginal smears with sterile swabs on several days after infection. The swabs were put into Sabouraud broth in petri-dishes and incubated for 48 hours a 37° C. If no growth of Candida albicans occured, i.e., when the animals were negative at the end of the experiment, this was due to drug administration because it never happened in placebo treated controls.
The Tables I, II and III below give the lowest oral dose of the drug under investigation which was found active at the 14th day after infection.

Candida albicans [2] = experiment: Activity against crop candidosis in turkeys (dose whereby crops of 50% of animals were completely negative); type: in vivo; conditions: medicated feed for 13 consecutive days
Experimental: Experiment B: Activity of Compounds (I) Against Crop Candidosis in Turkeys
Turkeys of 14 days old were infected in the crop with 4.10^6 Candida albicans cells, grown on Sabouraud broth for 48 hours at 37° C. and diluted with saline. The volume of the inoculum was 1 ml. The drug under investigation were premixed in 500 mg of lacton and thereafter admixed in 1000 g of meal without any additives. The concentration of the drug under investigation in the meal was expressed in mg/kg.
The animals were given the medicated feed for 13 consecutive days starting on the day of infection. At the end of the experiment all animals were sacrificed. At autopsy the crops were removed, emptied and grinded in an ultra-turrax mixer in 15 ml of sterile saline. Colony counting was done on Sabouraud agar and the results given in the Tables I, II and III represent the ED50, i.e., the dose of the drug whereby the crops of 50% of the animals were completely negative for Candida albicans.

CNC(=S)Nc1ccc(OC[C@H]2CO[C@](Cn3ccnc3)(c3ccc(Cl)cc3Cl)O2)cc1 (relative stereo) [NHCSNHCH3, cis-N-{4-[2-(2,4-dichlorophenyl)-2-(1H-imidzol-1-yl-methyl)-1,3-dioxolan-4-ylmethoxy]-phenyl}-N'-methylthiourea]
lowest effective oral dose (vaginal candidosis in rats) (Candida albicans [1]): 10
ED50 (crop candidosis in turkeys) (Candida albicans [2]; Table I): 125 mg/kg of feed

CS(=O)(=O)N1CCN(c2ccc(OC[C@H]3CO[C@](Cn4cncn4)(c4ccc(Cl)cc4Cl)O3)cc2)CC1 (relative stereo) [SO2CH3]
minimal effective dose (Candida albicans [1]; Candida albicans, 336 h, Table II): 1.25 mg/kg
ED50 (crop candidosis in turkeys) (Candida albicans [2]; Table II): 31 mg/kg of feed

CN(C)c1ccc(OC[C@H]2CO[C@](Cn3ccnc3)(c3ccc(Cl)cc3Cl)O2)cc1 (relative stereo) [cis-4-[2-(2,4-dichlorophenyl)-2-(1H-imidazol-1-ylmethyl)-1,3-dioxolan-4-ylmethoxy]-N,N'-dimethylbenzenamine diethanedioate.hydrate]
lowest effective oral dose (vaginal candidosis in rats) (Candida albicans [1]): 10
ED50 (crop candidosis in turkeys) (Candida albicans [2]; Table I): 31 mg/kg of feed

CCCNC(=O)N1CCN(c2ccc(OC[C@H]3CO[C@](Cn4ccnc4)(c4ccc(Cl)cc4Cl)O3)cc2)CC1 (relative stereo) [cis-4-{4-[2-(2,4-dichlorophenyl)-2-(1H-imidazol-1-yl-methyl)-1,3-dioxolan-4-ylmethoxy]phenyl}-N-propyl-1-piperazinecarboxamide dihydrate]
lowest effective oral dose (vaginal candidosis in rats) (Candida albicans [1]): 2.5
ED50 (crop candidosis in turkeys) (Candida albicans [2]; Table I): 125 mg/kg of feed

CCOC(=O)N1CCN(c2ccc(OC[C@H]3CO[C@](Cn4ccnc4)(c4ccc(Cl)cc4Cl)O3)cc2)CC1 (relative stereo) [drawing 31]
lowest effective oral dose (vaginal candidosis in rats) (Candida albicans [1]): 2.5
ED50 (crop candidosis in turkeys) (Candida albicans [2]; Table I): 16 mg/kg of feed

CCN1CCN(c2ccc(OC[C@H]3CO[C@](Cn4ccnc4)(c4ccc(Cl)cc4Cl)O3)cc2)CC1 (relative stereo) [drawing 37]
lowest effective oral dose (vaginal candidosis in rats) (Candida albicans [1]): 1.25
ED50 (crop candidosis in turkeys) (Candida albicans [2]; Table I): 31 mg/kg of feed

CCOC(=O)N1CCN(c2ccc(OC[C@H]3CO[C@](Cn4ccnc4)(c4ccc(Cl)cc4Cl)O3)cc2)CC1 (relative stereo) [drawing 39, cis-ethyl 4-{4-[2-(2,4-dichlorophenyl)-2-(1H-imidazol-1-ylmethyl)-1,3-dioxolan-4-ylmethoxy]phenyl}-1-piperazinecarboxylate dihydrochloride hemihydrate]
lowest effective oral dose (vaginal candidosis in rats) (Candida albicans [1]; dihydrochloride hemihydrate): 10
ED50 (crop candidosis in turkeys) (Candida albicans [2]; Table I, dihydrochloride hemihydrate): 31 mg/kg of feed

Clc1ccc([C@@]2(Cn3ccnc3)OC[C@H](COc3ccc(N4CCN(Cc5ccccc5)CC4)cc3)O2)c(Cl)c1 (relative stereo) [drawing 46]
lowest effective oral dose (vaginal candidosis in rats) (Candida albicans [1]): 2.5
ED50 (crop candidosis in turkeys) (Candida albicans [2]; Table I): 31 mg/kg of feed

Clc1ccc([C@@]2(Cn3ccnc3)OC[C@H](COc3ccc(N4CCN(Cc5ccccc5)CC4)cc3)O2)c(Cl)c1 (relative stereo) [drawing 50]
lowest effective oral dose (vaginal candidosis in rats) (Candida albicans [1]): 1.25
ED50 (crop candidosis in turkeys) (Candida albicans [2]; Table I): 16 mg/kg of feed

Source: US4223036A, “1-(1,3-Dioxolan-2-ylmethyl)-1H-1,2,4-triazoles” (Janssen Pharmaceutica N.V., priority 1979, dated 1980)
